system: not listed separately; assay: Binding of compounds to free synthetic melanin (Example 3); settings: free synthetic melanin 50 μg/mL, compound 10 μM in PBS, 37° C., 1 hour; relative percentage of compound bound, measured spectrophotometrically from compound left in solution
Method: Free synthetic melanin was incubated with compounds of interest in order to determine relative binding affinity of various compounds of interest to melanin. Free synthetic melanin (50 μg/mL) and compounds of interest at 10 μM concentration in PBS were incubated at 37° C. for 1 hour. After 1 hour, the synthetic melanin was removed from the solution, and the relative concentrations of the compound left in solution (i.e., not bound to the melanin) were measured spectrophometrically.

Question: With `OCCc1c[nH]c2ccccc12` [3-(2-Hydroxyethyl)indole] as the compound, how does the “% Melanin Bound” value read?
Answer: 6.5%

Question: Which “% Melanin Bound” value does the source give for `OCC[n+]1ccccc1.[Cl-]` [1-(2-Hydroxyethyl) pyridinium chloride] here?
Answer: 0%

Question: For `CCN(CC)CCCC(C)Nc1ccnc2cc(Cl)ccc12` (stereo not shown) [Chloroquine], which “% Melanin Bound” value is on record?
Answer: 48.6%

Question: For `CC1COC(=O)O1` (stereo not shown) [Propylene Carbonate], which “% Melanin Bound” value is on record?
Answer: Not detected

Question: Which “% Melanin Bound” value does the source give for `CCCCCCCCCCCCOC(=O)CCSCCC(=O)OCCCCCCCCCCCC` [Dilauryl Thiodipropionate] here?
Answer: Not detected

Question: For `O=C(O)c1cc(O)c(O)c(O)c1` [Gallic acid], which “% Melanin Bound” value is on record?
Answer: 0%

Question: For `c1ccc2[nH]ccc2c1` [Indole], which “% Melanin Bound” value is on record?
Answer: 7.3%

Question: For `Nc1cnc2ccccc2c1` [3-Aminoquinoline], which “% Melanin Bound” value is on record?
Answer: 5.1%

Question: With `Cl.c1ccncc1` [Pyridine hydrochloride] as the compound, how does the “% Melanin Bound” value read?
Answer: 0%

Question: With `CCCCCCCCCCCC[n+]1ccc(N)cc1.[Cl-]` [4-Amino-1-dodecyl-pyridinium chloride] as the compound, how does the “% Melanin Bound” value read?
Answer: 49.5%

Question: For `O=C(O)/C=C/c1ccc(O)c(O)c1` [Caffeic acid], which “% Melanin Bound” value is on record?
Answer: 0%

Question: Which “% Melanin Bound” value does the source give for `O=c1c(O)c(-c2ccc(O)c(O)c2)oc2cc(O)cc(O)c12` [Quercetin] here?
Answer: 99.7%

Question: Which “% Melanin Bound” value does the source give for `O=CC[C@@H](O)[C@H](O)[C@H](O)CO` [Deoxy-d-glucose] here?
Answer: Not detected

Question: Which “% Melanin Bound” value does the source give for `O=C(O)CCSCCC(=O)O` [Thiodipropanoic Acid] here?
Answer: 1.5%

Question: With `NC(=O)c1cccnc1` [Niacinamide] as the compound, how does the “% Melanin Bound” value read?
Answer: 0%

Question: With `CCCC[n+]1ccccc1.[Cl-]` [1-Butylpyridinium chloride] as the compound, how does the “% Melanin Bound” value read?
Answer: 0%

Question: For `Oc1ccccc1O` [Pyrocatechol], which “% Melanin Bound” value is on record?
Answer: 21.5%

Question: Which “% Melanin Bound” value does the source give for `Cn1c(=O)c2c(ncn2C)n(C)c1=O` [Caffeine] here?
Answer: 4.4%

Question: For `Oc1cccc(O)c1O` [Pyrogallol], which “% Melanin Bound” value is on record?
Answer: Not detected

system: Melanoderm Mel-B (high concentration of melanin) and Melanoderm Mel-C (low concentration of melanin) tissue models; assay: Affinity of pyridinium compounds for melanin in Melanoderm tissue models (Example 2); assay type: cell-based; settings: Melanoderm tissue models; 1 μM and 10 μM
Description: Affinity of pyridinium compounds for melanin in Melanoderm Mel-B (high concentration of melanin) and Melanoderm Mel-C (low concentration of melanin) tissue models.
Melanoderm Mel-B (high concentration of melanin) and Melanoderm Mel-C (low concentration of melanin) tissue models were used to determine the affinity of pyridinium compounds for melanin. Chloroquine served as a positive control and caffeic acid was a negative control for melanin binding. […] Test materials were topically applied at 0, 24 and 48 hours and tested at 1 μM and 10 μM concentration in water. Media samples were collected at 6, 24, 48, and 72 hours and tissue were lysed at 72 hours.

Question: Which “melanin binding compared with the positive control (chloroquine)” value does the source give for `CCCCCCCCCCCC[n+]1ccc(N)cc1.[Cl-]` [4-Amino-1-dodecyl-pyridinium chloride] here?
Answer: outperformed the positive control

same assay, conditions: Melanoderm tissue models; 10 μM versus 1 μM

Question: For `CCCCCCCCCCCC[n+]1ccc(N)cc1.[Cl-]` [4-Amino-1-dodecyl-pyridinium chloride], which “melanin binding, 10 μM compared to 1 μM concentration” value is on record?
Answer: increased melanin binding

same assay, conditions: topically applied at 0, 24 and 48 hours, 1 μM and 10 μM in water; media at 6, 24, 48, 72 hours, tissue lysed at 72 hours; FIG. 1

Question: Which “binding affinity for the 3-D tissue samples” value does the source give for `CCCCCCCCCCCC[n+]1ccc(N)cc1.[Cl-]` [4-Amino-1-dodecyl-pyridinium chloride] here?
Answer: strong binding affinity
